From US10155021B2, “Antimicrobial 4-oxoquinolizines” (Emergent Product Development Gaithersburg Inc., priority 2011, dated 2018)
≈ marks a conversion by molar mass, not a printed value. Like-named read-outs stand apart in the source and are kept apart here.

Experiments:
B. thailandensis = assay: microbe, parasite or virus in culture; type: cell-based, Burkholderia thailandensis; conditions: for MIC90: Burkholderia thailandensis, read-out: MIC90 B. thailandensis; for Dilutions improvement shift on B. thailandensis MIC90 (between pH 7 and pH 5): pH 7 versus pH 5
S. aureus 25923 = assay: MIC, standard panel of Gram-positive and Gram-negative bacteria (CLSI); type: cell-based, Staphylococcus aureus; conditions: Staphylococcus aureus, 25923; CAMHB; read-out: MIC S. aureus 25923
S. aureus 25923 HS = assay: as above; type: cell-based; conditions: Staphylococcus aureus, CAMHB, HS, read-out: MIC S. aureus 25923 HS
S. aureus 101 = assay: as above; type: cell-based, Staphylococcus aureus; conditions: Staphylococcus aureus, 101; CAMHB; read-out: MIC S. aureus 101
S. epidermis 12228 = assay: as above; type: cell-based, Staphylococcus epidermis; conditions: Staphylococcus, 12228; CAMHB; read-out: MIC S. epidermis 12228
P. aeruginosa 27853 = assay: as above; type: cell-based, Pseudomonas aeruginosa; conditions: Pseudomonas aeruginosa, 27853; CAMHB; read-out: MIC P. aeruginosa 27853
A. Baumanii OXA-51 = assay: MIC, panel of quinolone-resistant strains (CLSI); type: cell-based; conditions: Acinetobacter baumannii; CIP R, ESBL
S. pneumoniae 1027 = assay: MIC, panel of quinolone-resistant strains (CLSI); type: cell-based; conditions: Streptococcus pneumoniae, LEV R
[1] = test system: Acinetobacter spp. H064200250; assay: MIC determination for Acinetobacter strains (Example 3); type: cell-based, Acinetobacter sp.; conditions: LEV R, CIP R, MRP R, IMP I
A. baumannii A489 = assay: as above; type: cell-based; conditions: LEV R, CIP R, MRP R, IMP R, AMK R, TET R
A. baumannii A390 [2] = assay: as above; type: cell-based; conditions: LEV R, CIP R, MRP R, IPM I, AMK R, TET I
A. baumannii A473 = assay: as above; type: cell-based; conditions: LEV R, CIP R, MRP R, IMP R, AMK R, TET R
A. baumannii A390 [3] = assay: MIC without and with sub-inhibitory polymyxin B (Example 4); type: cell-based, Acinetobacter baumannii; conditions: Acinetobacter baumannii, A390, A. baumannii A390, without polymyxin B, read-out: MIC without PB
A. baumannii ATCC 19606 [4] = assay: Preliminary MBC without and with sub-inhibitory polymyxin B (Example 4); type: cell-based, Acinetobacter baumannii; conditions: Acinetobacter baumannii, ATCC19606, A. baumannii ATCC 19606, without polymyxin B, preliminary MBC, read-out: MBC without PB
A. baumannii A401 = assay: as above; type: cell-based, Acinetobacter baumannii; conditions: Acinetobacter baumannii, A401, A baumannii A 401, without polymyxin B, preliminary MBC, read-out: MBC without PB
E. coli IMP = assay: microbe, parasite or virus in culture; conditions: Escherichia coli, read-out: MIC E. coli IMP
A. baumannii ATCC 19606 [5] = assay: MIC determination for Acinetobacter strains (Example 3); type: cell-based; conditions: ATCC19606, reference strain
A. baumannii J2 = assay: as above; type: cell-based; conditions: LEV R, CIP R
A. baumannii A387 [6] = assay: MIC without and with sub-inhibitory polymyxin B (Example 4); type: cell-based, Acinetobacter baumannii; conditions: Acinetobacter baumannii, A387, A. baumannii A387, without polymyxin B, read-out: MIC without PB
A. baumannii A329 = assay: Preliminary MBC without and with sub-inhibitory polymyxin B (Example 4); type: cell-based, Acinetobacter baumannii; conditions: Acinetobacter baumannii, A329, A. baumannii A329, without polymyxin B, read-out: MBC without PB
A. baumannii A387 [7] = assay: as above; type: cell-based, Acinetobacter baumannii; conditions: Acinetobacter baumannii, A387, A. baumannii A387, without polymyxin B, read-out: MBC without PB
E. coli 25922 = assay: MIC, standard panel of Gram-positive and Gram-negative bacteria (CLSI); type: cell-based, Escherichia coli; conditions: Escherichia coli, 25922; CAMHB; read-out: MIC E. coli 25922
A. baumannii A387 [8] = assay: MIC determination for Acinetobacter strains (Example 3); type: cell-based; conditions: LEV I, CIP R, IPM R, AMK R, TET R

Compound: Cc1c(-c2ccc(N)cc2)c(F)cn2c(=O)c(C(=O)O)cc(C3CC3)c12 [Compound 7, 8-(4-amino-phenyl)-1-cyclopropyl-7-fluoro-9-methyl-4-oxo-quinolizine-3-carboxylic acid]
- MIC90 (B. thailandensis): < 0.048 µg/mL
- Dilutions improvement shift on B. thailandensis MIC90 (between pH 7 and pH 5) (B. thailandensis): Yes, 4×
- MIC (S. aureus 25923): < 0.008 µg/mL
- MIC (S. aureus 25923 HS): 1 µg/mL (≈ 2.84 µM)
- MIC (S. aureus 101): 1 µg/mL (≈ 2.84 µM)
- MIC (S. epidermis 12228): < 0.008 µg/mL
- MIC (P. aeruginosa 27853): 4 µg/mL (≈ 11.4 µM)
- MIC (A. Baumanii OXA-51): 8 µg/mL (≈ 22.7 µM)
- MIC (S. pneumoniae 1027): 4 µg/mL (≈ 11.4 µM)
- MIC [1]: 8 µg/mL (≈ 22.7 µM)
- MIC (A. baumannii A489): 8 µg/mL (≈ 22.7 µM)
- MIC (A. baumannii A390 [2]): 8 µg/mL (≈ 22.7 µM)
- MIC (A. baumannii A473): 4 µg/mL (≈ 11.4 µM)
- MIC (A. baumannii A390 [3]; 1st experiment): 8 µg/mL (≈ 22.7 µM)
- MBC (A. baumannii ATCC 19606 [4]; 2nd experiment): 0.25 µg/mL (≈ 0.709 µM)
- MBC (A. baumannii A401; 2nd experiment): 8 µg/mL (≈ 22.7 µM)
- MBC (A. baumannii A401; 1st experiment): 4 µg/mL (≈ 11.4 µM)
- MIC (E. coli IMP): < 0.008 µg/mL

Compound: Cc1c(-c2ccc(N)c(F)c2)ccn2c(=O)c(C(=O)O)cc(C3CC3)c12 [Compound 1, 8-(3-fluoro-4-amino-phenyl)-1-cyclopropyl-9-methyl-4-oxo-quinolizine-3-carboxylic acid]
- MIC90 (B. thailandensis): < 0.048 µg/mL
- Dilutions improvement shift on B. thailandensis MIC90 (between pH 7 and pH 5) (B. thailandensis): Yes, 4×
- MIC (A. baumannii ATCC 19606 [5]): 0.25 µg/mL (≈ 0.709 µM)
- MIC (A. baumannii J2): 8 µg/mL (≈ 22.7 µM)
- MIC [1]: 8 µg/mL (≈ 22.7 µM)
- MIC (A. baumannii A489): 4 µg/mL (≈ 11.4 µM)
- MIC (A. baumannii A390 [2]): 16 µg/mL (≈ 45.4 µM)
- MIC (A. baumannii A473): 4 µg/mL (≈ 11.4 µM)
- MIC (A. baumannii A387 [6]; 2nd experiment, visual reading): 4 µg/mL (≈ 11.4 µM)
- MIC (A. baumannii A390 [3]; 1st experiment): 16 µg/mL (≈ 45.4 µM)
- MIC (A. baumannii A390 [3]; 2nd experiment, visual reading): 16 µg/mL (≈ 45.4 µM)
- MBC (A. baumannii ATCC 19606 [4]; 2nd experiment): 0.25 µg/mL (≈ 0.709 µM)
- MBC (A. baumannii ATCC 19606 [4]; 1st experiment): 0.25 µg/mL (≈ 0.709 µM)
- MBC (A. baumannii A329; 1st experiment): 16 µg/mL (≈ 45.4 µM)
- MBC (A. baumannii A387 [7]; 2nd experiment): 4 µg/mL (≈ 11.4 µM)
- MBC (A. baumannii A401; 2nd experiment): 8 µg/mL (≈ 22.7 µM)
- MBC (A. baumannii A401; 1st experiment): 16 µg/mL (≈ 45.4 µM)

Compound: Cc1c(-c2cc(Cl)c(N)c(Cl)c2)ccn2c(=O)c(C(=O)O)cc(C3CC3)c12 [Compound 3, 8-(3,5-dichloro-4-amino-phenyl)-1-cyclopropyl-9-methyl-4-oxo-quinolizine-3-carboxylic acid]
- MIC90 (B. thailandensis): < 0.048 µg/mL
- MIC (S. aureus 25923): < 0.008 µg/mL
- MIC (S. aureus 25923 HS): 1 µg/mL (≈ 2.48 µM)
- MIC (E. coli 25922): < 0.03 µg/mL
- MIC (P. aeruginosa 27853): 2 µg/mL (≈ 4.96 µM)
- MIC (A. Baumanii OXA-51): 8 µg/mL (≈ 19.8 µM)
- MIC (S. pneumoniae 1027): 2 µg/mL (≈ 4.96 µM)
- MIC (A. baumannii J2): 8 µg/mL (≈ 19.8 µM)
- MIC [1]: 8 µg/mL (≈ 19.8 µM)
- MIC (A. baumannii A489): 4 µg/mL (≈ 9.92 µM)
- MIC (A. baumannii A387 [8]): 1 µg/mL (≈ 2.48 µM)
- MIC (A. baumannii A473): 4 µg/mL (≈ 9.92 µM)
- MIC (A. baumannii A387 [6]; 1st experiment): 1 µg/mL (≈ 2.48 µM)
- MIC (A. baumannii A387 [6]; 2nd experiment, visual reading): 1 µg/mL (≈ 2.48 µM)
- MBC (A. baumannii A329; 1st experiment): 16 µg/mL (≈ 39.7 µM)
- MBC (A. baumannii A329; 2nd experiment): 32 µg/mL (≈ 79.4 µM)
- MBC (A. baumannii A387 [7]; 1st experiment): 1 µg/mL (≈ 2.48 µM)
- MBC (A. baumannii A387 [7]; 2nd experiment): 4 µg/mL (≈ 9.92 µM)
- MBC (A. baumannii A401; 2nd experiment): 16 µg/mL (≈ 39.7 µM)
- MBC (A. baumannii A401; 1st experiment): 4 µg/mL (≈ 9.92 µM)
